From patent US10220028B2, “Thio compounds” (The United States of America, as represented by the …, priority 2011, dated 2019)
Entries after “also recorded” stand apart in the source; their conditions may differ.

Experiments:
[1] = system: LPS stimulated RAW 264.7 cells; assay: Cellular proliferation/health, MTS assay; type: cell-based; conditions: for cell stress (changes in O.D. values of the MTS assay): FIG. 4
Experimental: The CellTiter 96 AQueous One Solution Cell Proliferation Assay (Promega, Madison, Wis.) is routinely used as an assay of cell proliferation, and was used herein, according to the manufacturer's recommendations. […] Optical densities were measured after 1 to 2 hours incubation and were expressed as a % change from their appropriate control.

[2] = system: IFN-γ; assay: Generation of IFN-γ by TCR-stimulated T cells (cytokine ELISA); type: cell-based, human; conditions: FIG. 5A; for concentration at which significant inhibition of IFN-γ generation begins: TCR-stimulated T cells
Experimental: (§1) FIGS. 5A-5C. Concentration-dependence of effects of certain compounds on human T cell generation of cytokines. Each column and bar depicts the mean±S.D. of the results of cytokine ELISAs of supernates from T cells of a total of four healthy subjects, of whom two were young and two were old, after three days of incubation with anti-CD3+ anti-CD28 antibodies without (control=100%) and with a drug. The mean±S.D. of control (100%) values for IFN-γ, IL-2 and IL-17, respectively, where 30,915±11,206, 5.8±3.4 and 1149±372 pg/ml. A=IFN-γ, B=IL-2 and C=IL-17. Statistical significance of differences from the controls without an IMD was calculated by a two-sample t test and indicated by + for p<0.05,*for p<0.01 and**for p<0.001.
(§2) The capacity of several different compounds to alter the generation of three distinct immune cytokines by TCR-stimulated T cells of young and old subjects was investigated.

[3] = system: IL-2; assay: Generation of IL-2 by TCR-stimulated T cells (cytokine ELISA); type: cell-based, human; conditions: FIG. 5B; for concentration at which significant inhibition of IL-2 generation begins: stimulated T cells
Experimental: as §1, §2

[4] = system: IL-17; assay: Generation of IL-17 by TCR-stimulated T cells (cytokine ELISA); type: cell-based, human; conditions: FIG. 5C
Experimental: as §1
No compound was capable of enhancing TCR-stimulated T cell generation of IL-17. However, there was significant inhibition of generation of IL-17 by dithiolenalidomide at 0.1 μM and higher, lenalidomide at 0.3 μM and higher, dithiothalidomide at 3 μM and higher, and thalidomide only at 100 μM (FIG. 5C). None of the thalidomide-type drugs altered cytokine generation alone in the absence of TCR-directed stimulation (data not shown).

[5] = system: RAW 264.7 cells; assay: Cellular toxicity, lactate dehydrogenase (LDH) assay; type: cell-based; conditions: from 60 min after addition of LPS, vs DMSO control, FIG. 1
[6] = system: nitrite; assay: Nitrite levels, Griess Reagent System assay; type: cell-based; conditions: LPS stimulated RAW 264.7 media; FIG. 3
Experimental: Nitrite levels in the culture media were measured by use of the Griess Reagent System (Promega, Madison, Wis.), following the manufacturer's protocol. The O.D. of unknown samples was read at 520 nm A, compared to a sodium nitrite standard curve (1.5 μM to 100 μM) and nitrite measured media concentrations expressed as a % change from their appropriate control.

[7] = system: TNF-α protein; assay: TNF-α protein assay (ELISA) in LPS stimulated RAW 264.7 culture media; type: cell-based, mouse; conditions: LPS stimulated RAW 264.7 cells; vs DMSO control
Experimental: TNF-α protein levels were measured by use of an ELISA specific for mouse TNF-α protein (BioLegend, San Diego, Calif.), O.D.s measured at 450 nm λ, obtained from the unknown samples were compared to a TNF-α protein standard curve (7.8 to 500 pg/ml) and the calculated TNF-α levels are expressed as a % change from their appropriate control or as pg/ml.

Compound	cell stress (changes in O.D. values of the MTS assay) [1]	peak enhancement of IFN-γ generation ([2]; at 3 μM)	mean maximal enhancement of IL-2 generation ([3]; at 1 μM, mixed group of young and old subjects) [fold]	concentration at and above which IL-17 generation is significantly inhibited [4] [µM]	inhibition of IFN-γ generation ([2]; at 100 μM)	effect on IL-2 generation ([3]; at up to 100 μM)	cellular stress (O.D. values, LDH assay) [5]	cellular stress (MTS assay) ([1]; concentrations that far exceed 20 μM, LPS stimulated RAW 264.7 cells, FIG. 3)	toxicity compared to dithiothalidomide ([1]; particularly at drug concentrations or 10 μm or greater)	levels of nitrite in cell culture media [6]	levels of TNF-α protein in cell culture media [7]	concentration at which significant inhibition of IFN-γ generation begins [2] [µM]	concentration at which significant inhibition of IL-2 generation begins [3] [µM]	cellular health (MTS assay), relative to 100% control ([1]; 20 μM, LPS stimulated RAW 264.7 cells, FIG. 3)	cellular stress (MTS assay) ([1]; 20 μM, LPS stimulated RAW 264.7 cells, vs DMSO control, FIG. 3)
Nc1cccc2c1CN(C1CCC(=O)NC1=O)C2=O (stereo not drawn) [lenalidomide]	Neither thalidomide and lenalidomide treatment induced any cell stress	nearly three-fold	9.5	≥ 0.3	–	–	–	–	–	–	–	–	–	–	–
O=C1CCC(N2C(=O)c3ccccc3C2=O)C(=O)N1 (stereo not drawn) [thalidomide, N-α-phthalimidoglutarimide]	Neither thalidomide and lenalidomide treatment induced any cell stress	–	–	100	only modest inhibition	no detectable effect	–	–	–	–	–	–	–	–	–
Nc1cccc2c1CN(C1CCC(=S)NC1=O)C2=S (stereo not drawn) [dithiolenalidomide, 1,6′-Dithiolenalidomide]	–	–	–	≥ 0.1	–	–	no evidence of cellular stress	failed to induce any cellular stress	less toxic compared to dithiothalidomide	reduced the levels of nitrite	retained TNF-α inhibitory effect; also recorded: reduced the levels of TNF-α protein	≥ 1	≥ 3	–	–
O=C1NC(=S)CCC1N1C(=O)c2ccccc2C1=S (stereo not drawn) [dithiothalidomide, 3,6′-Dithiothalidomide]	–	–	–	≥ 3	–	–	evidence of cellular stress	–	–	reduced the levels of nitrite	reduced the levels of TNF-α protein	≥ 3	≥ 30	reduction from the 100% control values	evidence of cellular stress
